In patent EP4736861A1, “ORAL COMPOSITION CONTAINING INORGANIC POROUS BODY” (Tanabe Pharma Corporation, priority 2023, dated 2025):

What was measured:
[1] = source not stated, cited from earlier work; for pKa of conjugate acid: basic concomitant drugs; for pKa: acidic concomitant drugs
[2] = PBPK parameter; from Shimizu et al.; cited from earlier work
[3] = PBPK model: construction and simulation of plasma concentration and urinary excretion; conditions: PBPK parameter, mice
Source text: For the construction, in vivo data from the vehicle group of the previously described "In Vivo Study Using a Choline-Load Fasted Mouse Model" and in vivo data from the single-dose PK study were used.
The following steps were applied for the construction of the PBPK model. • * The liver-to-plasma partition coefficient, blood cell-to-plasma partition coefficient, and plasma protein unbound fraction for d9-TMA and d9-TMAO were cited from the report by Shimizu et al.^1), assuming no species difference. • * The liver volume and hepatic blood flow rate were cited from the report by Yamashita et al.^2). • * Using the data from the single intravenous dose PK study of d9-TMA and d9-TMAO, the PK parameters for d9-TMA and d9-TMAO were estimated. […] For d9-TMA, assuming that adsorption equilibrium is reached in the gastrointestinal tract, it was considered to follow the formula: inhibition ratio of d9-TMA absorption from gastrointestinal tract = theoretical acid amount of unadsorbed zeolite / (water volume in the colon × dissociation constant + theoretical acid amount of unadsorbed zeolite), and the dissociation constant of zeolite and d9-TMA was calculated. The water volume in the colon was cited from the value in SimCYP (V23) manufactured by Certara.

SMILES | pKa of conjugate acid [1] | further results
Clc1ccc(COC(Cn2ccnc2)c2ccc(Cl)cc2Cl)c(Cl)c1 (stereo not shown) [Miconazole] | 5.65 | 
[2H]C([2H])([2H])[N+]([O-])(C([2H])([2H])[2H])C([2H])([2H])[2H] [d9-TMAO] |  | blood cell-to-plasma partition coefficient [2]: 0.845; liver-to-plasma partition coefficient [2]: 0.675; plasma protein unbound fraction [2]: 0.714
CCC[C@@H]1C[C@@H](C(=O)N[C@@H]([C@H]2O[C@H](SC)[C@H](O)[C@@H](O)[C@H]2O)[C@@H](C)O)N(C)C1 [Lincomycin] | 7.6 | 
Oc1ncnc2[nH]ncc12 [Allopurinol] |  | pKa [1]: 9.50
CC12CC3CC(C)(C1)CC(N)(C3)C2 [Memantine] | 10.58 | 
OCCN1C[C@H](O)[C@@H](O)[C@H](O)[C@H]1CO [Miglitol] | 5.9 | 
Cc1ncc([N+](=O)[O-])n1CCO [Metronidazole] | 2.6 | 
CC(=O)Nc1ccc(CC(=O)O)cc1 [Actarit] |  | pKa [1]: 3.94
[2H]C([2H])([2H])N(C([2H])([2H])[2H])C([2H])([2H])[2H] [d9-TMA] |  | blood cell-to-plasma partition coefficient [2]: 0.719; liver-to-plasma partition coefficient [2]: 0.752; plasma protein unbound fraction [2]: 0.9
NC(=O)N1c2ccccc2C=Cc2ccccc21 [Carbamazepine] | 7 | 
COc1ccccc1OCCNCC(O)COc1cccc2[nH]c3ccccc3c12 (stereo not shown) [Carvedilol] | 7.8 | 
[2H]C([2H])([2H])[N+](CCO)(C([2H])([2H])[2H])C([2H])([2H])[2H].[Cl-] [d9-choline] |  | conversion ratio from d9-choline to d9-TMA [3]: 0.9324
CN1CCN2c3ncccc3Cc3ccccc3C2C1 (stereo not shown) [Mirtazapine] | 3.71 | 
Cc1nccn1CC1CCc2c(c3ccccc3n2C)C1=O (stereo not shown) [Ondansetron] | 7.4 | 
CCOC(=O)C1=C[C@@H](OC(CC)CC)[C@H](NC(C)=O)[C@@H](N)C1 [Oseltamivir] | 7.75 | 
